Legend:
[1] = Measurement of Log P values by HPLC on reversed phase columns (EEC directive 79/831 Annex V.A8); assay type: physicochemical
Method: Measurement of Log P values as provided herein was performed according to EEC directive 79/831 Annex V.A8 by HPLC (High Performance Liquid Chromatography) on reversed phase columns with the following methods: • ^[a] Log P value is determined by measurement of LC-UV, in an acidic range, with 0.1% formic acid in water and acetonitrile as eluent (linear gradient from 10% acetonitrile to 95% acetonitrile). • ^[b] Log P value is determined by measurement of LC-UV, in a neutral range, with 0.001 molar ammonium acetate solution in water and acetonitrile as eluent (linear gradient from 10% acetonitrile to 95% acetonitrile). • ^[c] Log P value is determined by measurement of LC-UV, in an acidic range, with 0.1% phosphoric acid and acetonitrile as eluent (linear gradient from 10% acetonitrile to 95% acetonitrile).
If more than one Log P value is available within the same method, all the values are given and separated by “+”. […]

Alternaria alternata = Alternaria alternata in vitro cell test; assay type: cell-based; conditions: 120 h, 20 ppm of active ingredient, liquid culture, 5 days incubation, read-out: efficacy (inhibition of fungal growth)
Method: (§1) • Solvent: […] Fungicides were solubilized in DMSO and the solution used to prepare the required range of concentrations. The final concentration of DMSO used in the assay was ≤1%. A spore suspension of Alternaria alternata was prepared and diluted to the desired spore density. Fungicides were evaluated for their ability to inhibit spore germination and mycelium growth in liquid culture assay. The compounds were added in the desired concentration to the culture medium with spores. After 5 days incubation, fungi-toxicity of compounds was determined by spectrometric measurement of mycelium growth. Inhibition of fungal growth was determined by comparing the absorbance values in wells containing the fungicides with the absorbance in control wells without fungicides.

Fusarium culmorum = Fusarium culmorum in vitro cell test; assay type: cell-based; conditions: 96 h, 20 ppm of active ingredient, liquid culture, 4 days incubation, read-out: efficacy (inhibition of fungal growth)
Method: • Solvent: DMSO • Culture medium: 14.6 g anhydrous D-glucose (VWR), 7.1 g Mycological Peptone (Oxoid), 1.4 g granulated Yeast Extract (Merck), QSP 1 liter • Inoculum: spore suspension
Fungicides were solubilized in DMSO and the solution used to prepare the required range of concentrations. The final concentration of DMSO used in the assay was ≤1%.
A spore suspension of Fusarium culmorum was prepared and diluted to the desired spore density.
Fungicides were evaluated for their ability to inhibit spore germination and mycelium growth in liquid culture assay. The compounds were added in the desired concentration to the culture medium with spores. After 4 days incubation, fungi-toxicity of compounds was determined by spectrometric measurement of mycelium growth. Inhibition of fungal growth was determined by comparing the absorbance values in wells containing the fungicides with the absorbance in control wells without fungicides.

Pyricularia oryzae = experiment: microbe, parasite or virus in culture; assay type: cell-based; conditions: 120 h, read-out: efficacy (inhibition of fungal growth)
[2] = system: Colletotrichum lindemuthianum; experiment: Colletotrichum lindemuthianum in vitro cell test; assay type: cell-based; conditions: 144 h, 20 ppm of active ingredient, liquid culture, 6 days incubation, read-out: efficacy (inhibition of fungal growth)
Method: as §1, with “1%.” for “≤1%.”, “Colletotrichum lindemuthianum” for “Alternaria alternata”, “6” for “5”

Septoria tritici = Septoria tritici in vitro cell test; assay type: cell-based; conditions: Zymoseptoria tritici, 168 h; 20 ppm of active ingredient; liquid culture, 7 days incubation; read-out: efficacy (inhibition of fungal growth)
Method: • Solvent: DMSO • Culture medium: 1 g KH2PO4 (VWR), 1 g K2HPO4 (VWR), 0.5 g Urea (VWR), 3 g KNO3 (Prolabo), 10 g saccharose (VWR), 0.5 g MgSO4, 7H2O (Sigma), 0.07 g CaCl2, 2H2O (Prolabo), 0.2 mg MnSO4, H2O (Sigma), 0.6 mg CuSO4, 5H2O (Sigma), 7.9 mg ZnSO4, 7H2O (Sigma), 0.1 mg H3BO3 (Merck), 0.14 mg NaMoO4, 2H2O (Sigma), 2 mg thiamine (Sigma), 0.1 mg biotine (VWR), 4 mg FeSO4, 7H2O (Sigma), QSP 1 liter • Inoculum: spore suspension Fungicides were solubilized in DMSO and the solution used to prepare the required range of concentrations. The final concentration of DMSO used in the assay was 1%. A spore suspension of Septoria tritici was prepared and diluted to the desired spore density. Fungicides were evaluated for their ability to inhibit spore germination and mycelium growth in liquid culture assay. The compounds were added in the desired concentration to the culture medium with spores. […] Inhibition of fungal growth was determined by comparing the absorbance values in wells containing the fungicides with the absorbance in control wells without fungicides.

[3] = method [a]: LC-UV, acidic range, 0.1% formic acid in water and acetonitrile as eluent

Structure (SMILES)	chromatographic logP [1, 3]	inhibition at 20 ppm (Alternaria alternata) [%]	inhibition at 20 ppm (Fusarium culmorum) [%]	inhibition at 20 ppm (Pyricularia oryzae) [%]	inhibition at 20 ppm [2] [%]	inhibition at 20 ppm (Septoria tritici) [%]	chromatographic logP ([1]; method [b]: LC-UV, neutral range, 0.001 molar ammonium acetate solution in water and acetonitrile as eluent)
Cc1ccc(CC2CON=C(c3c(Oc4cccc(Cl)c4)nnc4ccccc34)N2)c(C)c1 (racemic) [Compound I-002, 3-(3-chlorophenoxy)-4-[(5RS)-5-(2,4-dimethylbenzyl)-5,6-dihydro-4H-1,2,4-oxadiazin-3-yl]cinnoline]	3.96	≥ 70	≥ 70	≥ 70	≥ 70	–	–
FC(F)(F)c1cccc(Oc2nnc3ccccc3c2C2=NOC[C@@H](Cc3ccc(Br)cc3Cl)N2)c1 (racemic) [Compound I-007]	4.44	≥ 70	≥ 70	≥ 70	≥ 70	≥ 70	–
Cc1ccc(C[C@@H]2CON=C(c3c(Oc4cccc(C(F)(F)F)c4)nnc4cc(C)ccc34)N2)c(C)c1 (racemic) [Compound I-005]	4.32	≥ 70	≥ 70	≥ 70	≥ 70	–	4.27
Cc1ccc(C[C@@H]2CON=C(c3c(Oc4cccc(C5CC5)c4)nnc4ccccc34)N2)c(C)c1 (racemic) [Compound I-003]	4.11	≥ 70	≥ 70	≥ 70	≥ 70	–	–
Cc1ccc(C[C@@H]2CON=C(c3c(Oc4cccc(C5CC5)c4F)cnc4nccnc34)N2)c(C)c1 (racemic) [Compound I-014]	3.5	≥ 70	≥ 70	–	≥ 70	≥ 70	–
Cc1cccc(Oc2nnc3ccccc3c2C2=NOCC(Cc3ccc(C)cc3C)N2)c1 (racemic) [Compound I-001, 4-[(5RS)-5-(2,4-dimethylbenzyl)-5,6-dihydro-4H-1,2,4-oxadiazin-3-yl]-3-(3-methylphenoxy)cinnoline]	3.85	≥ 70	≥ 70	≥ 70	≥ 70	–	–
Cc1ccc(C[C@@H]2CON=C(c3c(Oc4cccc(C(F)(F)F)c4)cnc4ccoc34)N2)c(C)c1 (racemic) [Compound I-013]	3.96	≥ 70	≥ 70	≥ 70	≥ 70	≥ 70	–
Cn1cc(-c2ccc(C[C@@H]3CON=C(c4c(Oc5cccc(C(F)(F)F)c5)nnc5ccccc45)N3)c(Cl)c2)cn1 (racemic) [Compound I-008]	3.37	≥ 70	–	≥ 70	≥ 70	–	–
FC(F)(F)c1cccc(Oc2cnc3ccccc3c2C2=NC[C@@H](Cc3ccc(Cl)cc3)N2)c1 (racemic) [Compound I-015]	2.46	≥ 70	≥ 70	≥ 70	≥ 70	≥ 70	–
Cc1ccc(C[C@@H]2CON=C(c3c(Oc4cccc(C(F)(F)F)c4)cnc4ccccc34)N2)c(C)c1 (racemic) [Compound I-004]	4.19	≥ 70	≥ 70	≥ 70	≥ 70	–	–
Cc1ccc(CC2CN=C(c3c(Oc4cccc(C(F)(F)F)c4)cnc4ccccc34)N2)c(C)c1 (racemic) [Compound I-011, 4-[(5RS)-5-(2,4-dimethylbenzyl)-4,5-dihydro-1H-imidazol-2-yl]-3-[3-(trifluoromethyl)phenoxy]quinoline]	2.57	≥ 70	–	≥ 70	≥ 70	–	–
C=Cc1cccc(Oc2cnc3ccccc3c2C2=NOC[C@@H](Cc3ccc(C)cc3C)N2)c1 (racemic) [Compound I-018]	4.23	≥ 70	≥ 70	≥ 70	≥ 70	≥ 70	–
Cc1ccc(C[C@@H]2CON=C(c3c(Oc4cccc(C5CC5)c4F)cnc4ccccc34)N2)c(C)c1 (racemic) [Compound I-017]	4.51	≥ 70	≥ 70	≥ 70	≥ 70	≥ 70	–
C#Cc1cccc(Oc2cnc3ccccc3c2C2=NOC[C@@H](Cc3ccc(C)cc3C)N2)c1 (racemic) [Compound I-016]	4.05	≥ 70	≥ 70	≥ 70	≥ 70	≥ 70	–
Cc1ccc(C[C@@H]2CN=C(c3c(Oc4cccc(Cl)c4)nnc4ccccc34)N2)c(C)c1 (racemic) [Compound I-012]	2.46	≥ 70	–	≥ 70	≥ 70	–	–
Cc1ccc(CC2CNN=C(c3c(Oc4cccc(C(F)(F)F)c4)cnc4ccccc34)N2)c(C)c1 (racemic) [Compound I-010, 4-[(5RS)-5-(2,4-dimethylbenzyl)-1,4,5,6-tetrahydro-1,2,4-triazin-3-yl]-3-[3-(trifluoromethyl)phenoxy]quinoline]	2.57	≥ 70	–	–	–	–	–
C=Cc1cccc(Oc2cnc3ccccc3c2C(=O)N[C@@H](CON2C(=O)c3ccccc3C2=O)Cc2ccc(C)cc2C)c1 (racemic) [Compound 3-05]	4.78	–	–	–	–	–	–
Cc1ccc(C[C@H](CCl)NC(=NO)c2c(Oc3cccc(C4CC4)c3F)cnc3ccccc23)c(Cl)c1 (racemic) [Compound 12-02]	4.93	–	–	–	–	–	–
Cc1ccc(C[C@@H]2CON=C(c3c(Oc4cccc(C5CC5)c4F)cnc4ccccc34)N2)c(Cl)c1 (racemic) [Compound I-021]	4.55	–	–	–	–	–	–
Cc1ccc(CC(CON2C(=O)c3ccccc3C2=O)NC(=O)c2c(Oc3cccc(Cl)c3)nnc3ccccc23)c(C)c1 (racemic) [Compound 3-01, 3-(3-chlorophenoxy)-N-{(2RS)-1-(2,4-dimethylphenyl)-3-[(1,3-dioxo-1,3-dihydro-2H-isoindol-2-yl)oxy]propan-2-yl}cinnoline-4-carboxamide]	4.49	–	–	–	–	–	–
Cc1ccc(CC(CCl)NC(=O)c2c(Oc3cccc(C4CC4)c3F)nnc3ccccc23)c(C)c1 (racemic) [Compound 10-01, N-[(2RS)-1-chloro-3-(2,4-dimethylphenyl)propan-2-yl]-3-(3-cyclopropyl-2-fluorophenoxy)cinnoline-4-carboxamide]	4.73	–	–	–	–	–	–

Reference: patent US12673942B2, “Azabicyclyl-substituted heterocycles as fungicides” (Bayer Aktiengesellschaft, priority 2020, dated 2026)
